What all share (experiment): growth of human tumour cells (NCI), 48 h
Test [1] concerns 786-0 renal.
For test [2], the system named is A498 renal.
In test [3] the test system is IGROV1 ovarian.
In test [4] the test system is M14 melanoma.
Test [5] deals with SK-MEL-28 melanoma.
In test [6] the test system is SK-MEL-5 melanoma.
For test [7], the system named is SR leukemia.
In test [8] the test system is T-47D breast.
Test [9] has as its system HL-60(TB) leukemia.
Test [10] relates to RPMI-8226 leukemia.
For test [11], the system named is TK-10 renal.
Test [12] has as its system UACC-62 melanoma.

This note sets out measurements from PubChem BioAssay (NCI).

Structures are written as SMILES.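 Step 1: Grow cells in 96-well plates. Step 2: Expose to compound for 48 hours at 5 concentrations. Step 3: Interpolate endpoints linearly; if unreached, use highest concentration. GI50 marks 50% less growth. TGI: concentration producing complete growth inhibition.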 *1 amine or outer side, *2 acyl side, *3 side chain or, on linkers, in order; H or OH if unused. Where a SMILES comes first, the peptide text is derived from it. Bridges are numbered along the chain shown (N, C = ends). Roman numbers before positions name the chains, in order. [ ]: non-standard residue; d: D form. ξ: configuration not given here. X54 = N=C(N)NCCC[C@@H](NC(=N)CCCCCCC(=N)N[C@H](CCCNC(=N)N)C(=O)[*:2])C(=O)[*:1]; dIgl = N[C@@H](C(=O)O)C1Cc2ccccc2C1; Hyp = O=C(O)[C@@H]1C[C@@H](O)CN1; ξIgl = NC(C(=O)O)C1Cc2ccccc2C1; ξOic = O=C(O)C1CC2CCCCC2N1; ξR = N=C(N)NCCCC(N)C(=O)O; ξP = O=C(O)C1CCCN1; ξS = NC(CO)C(=O)O

On to `CSc1cc(Cl)c(C)cc1S(=O)(=O)NC(=O)NNc1ccc(F)cc1`, for which the TGI in [1], in test [2], in test [3], in test [4], in test [5] and in [6] was more than 100 µM in each case. Moreover, the TGI in test [7] and in [8] was more than 100 µM in each case.
With `Nc1nc(Cl)cc(OCC2(CO)CCCC2)n1`, the TGI in [1], in test [2], in test [9], in test [3], in test [10] and in [5] was more than 100 µM in each case. In addition, the TGI in test [6] and in [11] was more than 100 µM each time.
Regarding `c1coc(-c2nccc3c2[nH]c2ccccc23)c1`, the TGI in test [1], in [2], in [9], in test [3], in [4] and in test [5] was more than 100 µM in each case. Further, the TGI in test [6], in test [7], in [8], in [11] and in test [12] was more than 100 µM in each case.
Take `CN1C(=O)CC2(C)c3cc(O)cc(Br)c3N(C)C12` (centres undefined): the TGI in test [1], in [2], in [3], in [4], in test [5] and in test [6] was more than 100 µM each time. The TGI in [11] and in test [12] was more than 100 µM throughout.
With `CCc1cc(C)cc2[n+]1CC=C2`, the TGI in [1] was more than 100 µM; in test [9], 12.8 µM; in test [4], 80.7 µM; in test [5] it was more than 100 µM; in [11] it was more than 100 µM.
As to `CC(=O)c1ccccc1NC(=O)C(=O)C(C(=O)c1ccc2ccccc2c1)C1OC(=O)c2ccccc21` (centres undefined), the TGI was 20.9 µM in test [1]; 43.9 µM in test [2]; 43.6 µM in [9]; 52.6 µM in test [3]; 36.6 µM in test [4]; 52.7 µM in test [10]. Further, the TGI in test [5] was 32.5 µM; in test [6], 24.4 µM; in [11], 92.4 µM; in test [12], 28.1 µM.
As for `CC[C@@]1(O)C[C@H](OC2CC(N(C)C)C(O)C(C)O2)c2c(cc3c(c2O)C(=O)c2c(O)ccc(O)c2C3=O)[C@H]1C(=O)OC` (some centres undefined), the TGI was determined as 0.239 µM in test [2]; 0.218 µM in test [9]; 1.35 µM in [3]; 0.388 µM in [10]; 0.462 µM in test [5]; 0.461 µM in [6]. Also, in test [12], the TGI was 0.252 µM.
As to `CCC(C)(C)c1cc(O)c(C(C)(C)CC)cc1O`, the GI50 in test [2] was 0.732 µM; in test [10], 2.41 µM; in test [5] it was 2.82 µM; in test [6], 2.2 µM; in [8], 4.56 µM; in [11] it was 2.46 µM. The GI50 in [12] was 2.28 µM. The TGI in test [2] turned out to be 8.5 µM; in [10] it was 9.09 µM; in test [5], 10.9 µM; in test [6] it was 5.26 µM; in [8], 19.5 µM; in test [11] it was 8.19 µM. Also, the TGI in test [12] was 6.84 µM.
With `Cc1ccccc1NC(=O)Cc1csc(N/N=C2\NC(=O)/C(=C/c3cccc([N+](=O)[O-])c3)S2)n1`, the TGI in test [1] is more than 100 µM; in test [9] it was 39.5 µM; in [3], 34.3 µM; in test [4], 31.3 µM; in [5], 55.3 µM; in test [6], 64.8 µM. The TGI in [8] was 55.1 µM; in test [11] it was 36.9 µM.
On to `N=C(N)NCCCC(NC(=O)C1CC2CCCCC2N1C(=O)[C@H](NC(=O)C(CO)NC(=O)C(NC(=O)CNC(=O)[C@@H]1C[C@@H](O)CN1C(=O)C1CCCN1C(=O)C(CCCNC(=N)N)NC(=O)[C@@H](CCCNC(=N)N)NC(=N)CCCCCCC(=N)N[C@H](CCCNC(=N)N)C(=O)NC(CCCNC(=N)N)C(=O)N1CCCC1C(=O)N1C[C@H](O)C[C@H]1C(=O)NCC(=O)NC(C(=O)NC(CO)C(=O)N[C@@H](C(=O)N1C(C(=O)NC(CCCNC(=N)N)C(=O)O)CC2CCCCC21)C1Cc2ccccc2C1)C1Cc2ccccc2C1)C1Cc2ccccc2C1)C1Cc2ccccc2C1)C(=O)O` (some centres undefined) (I: [ξR][ξP][Hyp]G[ξIgl][ξS][dIgl][ξOic][ξR]-OH / II: [ξR][ξP][Hyp]G[ξIgl][ξS][dIgl][ξOic][ξR]-OH; linker I:N-II:N via X54), for which the TGI in [1] was 5.07 µM; in [9], 0.409 µM; in [3] it was more than 10 µM; in test [4] it was 7.23 µM; in test [10], 4.48 µM; in [5], 3.64 µM. In addition, the TGI turned out to be 3.62 µM in test [6]; 2.95 µM in [7]; 4.42 µM in [8]; 8.95 µM in test [11]; 3.72 µM in [12].
For the molecule `Fc1ccc(-c2sc(-c3ccsc3)cc2Cc2ccsc2)cc1`, the TGI in [1], in [9], in test [3], in test [4], in test [10] and in test [5] was more than 10 µM in each case. For the same molecule, the TGI in test [6], in test [7], in test [8], in test [11] and in test [12] was more than 10 µM throughout.
Turning to `O=C1C=C(Nc2ccccc2C(=O)CC(=O)C(=O)Nc2ccc(Cl)cc2)c2ccccc2C1=O`, the TGI was 62.1 µM in [1]; more than 100 µM in test [2]; more than 100 µM in test [9]; more than 88.5 µM in test [3]; 24.1 µM in test [4]; more than 33.2 µM in [10]. For the same molecule, the TGI was 35 µM in test [5]; 15.4 µM in test [6]; more than 100 µM in test [7]; more than 100 µM in test [11]; 29.8 µM in [12].
Consider `COC(=O)[C@H](CC(C)C)NC(=O)[C@H](Cc1ccccc1)N1CC2C=CC1C2` (some centres undefined), for which the TGI in [1] was more than 100 µM; in [2] it was more than 100 µM; in test [9] it was more than 100 µM; in test [3], more than 100 µM; in test [4] it was more than 100 µM; in [10], 79.2 µM. Further, the TGI in [5], in test [6], in [11] and in [12] was more than 100 µM throughout.
On to `Nc1nc(NCCOCP(=O)(O)O)c([N+](=O)[O-])c(=O)[nH]1`, for which the TGI in test [1], in [9], in test [3], in test [4], in test [10] and in test [5] was more than 100 µM each time. Also, the TGI in [7], in test [11] and in [12] was more than 100 µM throughout.
`CCC12CCCN(Cc3ccccc3)C1c1c(n(C)c3ccccc13)C(CO)C2` (centres undefined): the TGI in [1] was 79.5 µM; in test [9] it was 169 µM; in [3], 218 µM; in test [10], 108 µM; in test [5] it was 150 µM; in [6], 76.9 µM. For the same molecule, the TGI stood at 105 µM in test [7], 246 µM in test [11] and 115 µM in [12].
Take `CC(C)(C)N/N=C(\C(=O)Nc1cccc(Cl)c1)C1C(=O)Nc2ccccc2S1=O` (centres undefined): the TGI in [1], in [9], in [3], in test [4], in test [5] and in test [6] was more than 100 µM throughout. The TGI in [7], in test [11] and in [12] was more than 100 µM each time.
Consider `COc1ccccc1NC(=S)N=Nc1c(O)[nH]c2ccccc12`, for which the TGI in test [1] was more than 100 µM; in test [2], more than 100 µM; in [3] it was more than 100 µM; in test [4] it was more than 100 µM; in test [10] it was more than 100 µM; in test [5], 23.6 µM. Moreover, the TGI in test [6], in [7], in test [8], in test [11] and in test [12] was more than 100 µM each time.
With `COc1ccc2c(c1)Oc1cc(O)ccc1[C@H]2c1ccccc1C(=O)NC(C)c1ccccc1` (some centres undefined), the TGI in test [1] is 34.9 µM; in test [2], 30.8 µM; in test [9], 44.1 µM; in test [3], 31.5 µM; in test [4], 26.1 µM; in [10], 23.6 µM. The TGI in [5] was determined as 34.7 µM; in test [6], 29.2 µM; in [11], 50.4 µM; in test [12] it was 24.8 µM.
With `O=C(Cc1nc2ccc(C(=O)c3ccccc3)cc2[nH]c1=O)C(=O)Nc1nc2ccccc2[nH]1`, the TGI in test [1], in [9], in test [3], in [4], in test [5] and in test [6] was more than 100 µM each time. Moreover, the TGI in test [7], in test [11] and in [12] was more than 100 µM each time.
